Holding throughout (test): inhibition of tumour cell growth, NCI panel, 48 h
Test [1] concerns K-562 leukemia.
Test [2] deals with SNB-75 CNS.
In test [3] the test system is SF-539 CNS.
Test [4] relates to UACC-62 melanoma.
For test [5], the system named is TK-10 renal.
The test system of test [6] is HT29 colon.
Test [7] concerns M14 melanoma.
The test system of test [8] is NCI-H522 lung.
In test [9] the test system is HCT-15 colon.
Test [10] has as its system MDA-MB-231 breast.
For test [11], the system named is HOP-62 NSCLC.
Test [12] concerns MOLT-4 leukemia.
For test [13], the system named is SK-MEL-28 melanoma.
The test system of test [14] is SN12C renal.
The subject of test [15] is U251 CNS.
For test [16], the system named is HL-60(TB) leukemia.

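Test compounds were applied to cells in 96-well plates for 48 hours at 5 doses. GI50 marks 50% less growth. The concentration for full growth arrest is given as TGI.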 Where a SMILES comes first, the peptide text is derived from it. The star is where a group is joined. Ethyl(2-NMe3+) = C[N+](C)(C)CC*; Boc = CC(C)(C)OC(=O)*

Turning to `CC1=C(C)C1[N+](=O)[O-]`, the TGI in test [1], in test [2], in test [3], in [4], in test [5] and in test [6] was greater than 100 µM throughout. For the same compound, the TGI in test [7], in test [8], in test [9], in test [10], in [11] and in test [12] was greater than 100 µM throughout. Besides, the TGI in [13], in test [14], in test [15] and in test [16] was greater than 100 µM in each case.
As to `O=C1CCCC1C(O)(C(F)(F)F)C(F)(F)F` (centres undefined), the TGI in test [1], in test [2], in test [3], in [4], in test [5] and in test [6] was greater than 100 µM in each case. The TGI in test [7], in test [8], in test [9], in test [10], in [11] and in test [12] was greater than 100 µM throughout. For the same compound, the TGI in test [13], in test [14], in test [15] and in test [16] was greater than 100 µM throughout.
For `Cc1ccc2c(c1)CC1(Cc3c(C)cccc3C1=O)C2=O` (centres undefined), the TGI in [1] was greater than 100 µM; in test [2], 89.7 µM; in [3], greater than 100 µM; in [4], greater than 100 µM; in test [5], greater than 100 µM; in test [6] it was greater than 100 µM. Also, the TGI in test [7] is greater than 100 µM; in test [8] it was greater than 100 µM; in [9], greater than 100 µM; in [10] it was greater than 100 µM; in test [11], 71.9 µM; in [12], greater than 100 µM. For the same compound, the TGI in [13], in [14], in test [15] and in test [16] was greater than 100 µM throughout.
On to `CC(=O)c1cccc(Nc2nc3ccc(Cl)cc3c3[nH]c4ccccc4c23)c1`, for which the TGI was greater than 56.7 µM in [1]; 8.16 µM in test [2]; 30.1 µM in [3]; 24.4 µM in test [4]; 25.8 µM in test [5]; 48.5 µM in [6]. Further, the TGI in [7] was greater than 100 µM; in test [8] it was 16.4 µM; in test [9], greater than 100 µM; in test [10], 63.8 µM; in [11], 15.4 µM; in test [12] it was greater than 100 µM. Besides, the TGI was greater than 100 µM in test [13], greater than 90.8 µM in [14], 14.7 µM in test [15] and greater than 100 µM in test [16]. The GI50 in test [2] was 2.04 µM; in test [12] it was 6.41 µM; in [13] it was 16.5 µM; in [16] it was greater than 100 µM.
`CC(NC(=O)C(Cc1ccc(OCC[N+](C)(C)C)cc1)NC(=O)OC(C)(C)C)C(=O)NC(Cc1ccccc1)C(=O)NCC(N)=O` (centres undefined) (Boc-Y(Ethyl(2-NMe3+))AFG-NH2; configuration not given here): the TGI in [1] is greater than 100 µM; in test [2], 30.3 µM; in test [3], 25.5 µM; in [4] it was 71.7 µM; in test [5], 24 µM; in [6], greater than 100 µM. In addition, the TGI was greater than 100 µM in test [7]; greater than 100 µM in test [8]; greater than 100 µM in test [9]; 9.1 µM in test [10]; 14.5 µM in test [11]; greater than 100 µM in [12]. The TGI in test [13] is greater than 100 µM; in test [14], greater than 100 µM; in test [15], 12.8 µM; in [16], greater than 100 µM.
Take `C=CC[C@@]1([C@H](C=C)COCc2ccc(OC)cc2)CC[C@]2(C)OC(C)(C)[C@@H](c3ccccc3)N2C1=S`: the TGI in [1], in test [2], in test [3], in [4], in [5] and in test [6] was greater than 100 µM in each case. Further, the TGI in test [7], in test [8], in test [9], in test [10], in [11] and in test [12] was greater than 100 µM throughout. The TGI in test [13], in test [14], in test [15] and in test [16] was greater than 100 µM each time.
For the compound `O=P1(c2ccccc2)C(c2ccccc2)=CC=C1c1ccccc1`, the TGI in test [1] was 22.4 µM; in [2], 60.1 µM; in [3] it was greater than 100 µM; in test [4], greater than 100 µM; in [5], 60.1 µM; in [6], 50.2 µM. Moreover, the TGI was greater than 100 µM in [7]; 65.2 µM in [8]; 77.3 µM in [9]; greater than 100 µM in test [10]; greater than 100 µM in test [11]; 44 µM in [12]. Besides, the TGI was greater than 100 µM in test [13], greater than 100 µM in test [14], 43.8 µM in [15] and 9.31 µM in [16].
Consider `OC1[C@H](O)CN(OCc2ccccc2)C[C@@H]1O` (some centres undefined), for which the TGI in test [1], in test [2], in test [3], in [4], in [5] and in [6] was greater than 100 µM throughout. Further, the TGI in [7], in test [8], in test [9], in [10], in test [11] and in test [12] was greater than 100 µM throughout. In addition, the TGI in test [13], in test [14], in test [15] and in test [16] was greater than 100 µM each time.
Consider `Cc1c(F)c(N)c2c(=O)cc(-c3ccc(N)c(F)c3)oc2c1F`, for which the TGI in test [1] was greater than 92.9 µM; in test [2] it was 56.2 µM; in test [3], 32.3 µM; in test [4], 31 µM; in [5] it was 6.72 µM; in test [6] it was 98.6 µM. In addition, the TGI in test [7] is greater than 100 µM; in [8], 30.3 µM; in test [9] it was greater than 100 µM; in [10] it was 46.3 µM; in test [11], 46.8 µM; in [12], greater than 100 µM. For the same compound, the TGI is greater than 95.2 µM in [13], 56.7 µM in test [14], 33.1 µM in test [15] and greater than 100 µM in [16].
`O=C(NNCc1ccco1)c1cc2ccccc2[nH]1`: the TGI was greater than 100 µM in test [1]; greater than 100 µM in test [2]; greater than 84.4 µM in test [3]; greater than 100 µM in test [4]; greater than 100 µM in test [5]; greater than 100 µM in test [6]. For the same compound, the TGI in test [7], in test [8], in test [9], in test [10], in test [11] and in [12] was greater than 100 µM in each case. The TGI is greater than 100 µM in [13], greater than 100 µM in test [14], greater than 40.9 µM in test [15] and 96.9 µM in test [16].
Regarding `CCOc1cc2c(cc1O)CC[C@@H]1[C@@H]2CC[C@]2(C)C(N)CC[C@@H]12` (some centres undefined), the TGI in test [1] was found to be 27.5 µM; in test [2], 6.48 µM; in [3], 9.25 µM; in [4] it was 16.8 µM; in test [5], 15 µM; in test [6], 6.4 µM. The TGI in [7] was found to be 25.2 µM; in test [8], 11.9 µM; in test [9] it was 13.8 µM; in test [10], 5.56 µM; in test [11], 40.4 µM; in [12], 24.7 µM. Further, the TGI in [13] is 23.6 µM; in test [14] it was 20.5 µM; in test [15], 9.37 µM; in [16], greater than 25.1 µM.
Turning to `Nc1nc2n[nH]nc2c(=O)[nH]1`, the TGI was greater than 100 µM in [1]; greater than 66.8 µM in test [2]; 1.96 µM in test [3]; 2.62 µM in [4]; 12.7 µM in test [5]; greater than 100 µM in test [6]. Besides, the TGI in [7] is 2.98 µM; in test [8], 40.9 µM; in [9] it was greater than 100 µM; in [10], greater than 100 µM; in test [11] it was 9.42 µM; in [12], 4.35 µM. In addition, the TGI is 9.4 µM in [13], greater than 100 µM in test [14], greater than 100 µM in test [15] and 16.5 µM in test [16].
With `Cc1ccc(N2CCC3(CC2)OCCO3)cc1`, the TGI in [1], in [2], in test [3], in test [4], in test [5] and in [6] was greater than 100 µM each time. The TGI in [7], in [8], in [9], in [10], in [11] and in test [12] was greater than 100 µM in each case. Also, the TGI in test [13], in test [14], in [15] and in test [16] was greater than 100 µM throughout.
On to `CCCCN(Cc1ccccc1)C(=NC#N)N(Cc1ccccc1)Cc1ccccc1`, for which the TGI is greater than 100 µM in [1]; 71.4 µM in [2]; 46.8 µM in test [3]; 74.7 µM in test [4]; greater than 100 µM in test [5]; 85.2 µM in [6]. The TGI in test [7] was 47.4 µM; in test [8] it was 40.6 µM; in test [9], 77.2 µM; in test [10], 51.7 µM; in [11], 75.3 µM; in [12] it was greater than 100 µM. Besides, the TGI in [13] was greater than 100 µM; in test [14], greater than 80.5 µM; in test [15], 81.4 µM; in test [16] it was greater than 100 µM.
For `CN1C(=O)C(c2c[nH]c3ccccc23)N(C)C(=O)C1c1c[nH]c2ccccc12` (centres undefined), the TGI in [1] was greater than 100 µM; in test [2], 88.2 µM; in test [3] it was greater than 100 µM; in [4], greater than 100 µM; in test [5], greater than 100 µM; in [6] it was greater than 100 µM. Also, the TGI in [7], in [8], in [9], in test [10], in [11] and in test [12] was greater than 100 µM throughout. In addition, the TGI in [13], in [14], in [15] and in test [16] was greater than 100 µM throughout.

For the origin of these results see PubChem BioAssay (NCI).
